Results: ChEMBL document CHEMBL1201862, “PubChem BioAssay data set” (2004)
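Growth conditions: 96-well plates. Treatment: test compound, 48 hours, 5 concentrations. Analysis: linear interpolation between bracketing concentrations; unreached endpoints set to highest concentration. Here, GI50 denotes the concentration required for 50% inhibition of growth.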 Activity calls are given as the source filed them. Cut-off read from the data, not from the text of the source: active = GI50 up to about 1.1 µM and inactive = higher.

How the values were obtained:
Assay in all cases: DTP human tumour cell line panel, 48 h
786-0 = test system: 786-0
CCRF-CEM = test system: CCRF-CEM
EKVX = test system: EKVX
HCT-15 = test system: HCT-15
LOX IMVI = test system: LOX IMVI
MCF7 = test system: MCF7
MDA-MB-231 = test system: MDA-MB-231
MDA-MB-435 = test system: MDA-MB-435
MDA-N = test system: MDA-N
MOLT-4 = test system: MOLT-4
Malme-3M = test system: Malme-3M
NCI-H23 = test system: NCI-H23
NCI-H522 = test system: NCI-H522
RXF 393 = test system: RXF 393
SK-MEL-5 = test system: SK-MEL-5
SNB-75 = test system: SNB-75
TK-10 = test system: TK-10
U-251 = test system: U-251
UACC-257 = test system: UACC-257
UO-31 = test system: UO-31

SMILES	GI50 (786-0)	GI50 (CCRF-CEM)	GI50 (EKVX)	GI50 (HCT-15)	GI50 (LOX IMVI)	GI50 (MCF7)	GI50 (MDA-MB-231)	GI50 (MDA-MB-435)	GI50 (MDA-N)	GI50 (MOLT-4)	GI50 (Malme-3M)	GI50 (NCI-H23)	GI50 (NCI-H522)	GI50 (RXF 393)	GI50 (SK-MEL-5)	GI50 (SNB-75)	GI50 (TK-10)	GI50 (U-251)	GI50 (UACC-257)	GI50 (UO-31)
C[N+](C)([O-])CCCNc1ccnc2cccc([N+](=O)[O-])c12	> 100 µM (inactive)	31.6 µM (inactive)	> 100 µM (inactive)	24.2 µM	28.2 µM (inactive)	27.4 µM (inactive)	53.5 µM (inactive)	46.2 µM (inactive)	30.6 µM (inactive)	20.2 µM (inactive)	28.1 µM (inactive)	34.6 µM (inactive)	14.2 µM (inactive)	18.7 µM (inactive)	16.1 µM (inactive)	39.2 µM (inactive)	24.9 µM (inactive)	34.8 µM (inactive)	45.8 µM (inactive)	46.5 µM (inactive)
CC12CCC(C1)C(C)(C)C2OC(=O)c1ccccc1N (stereo not given)	16.6 µM (inactive)	0.678 µM (active)	15.6 µM (inactive)	15.9 µM	18.2 µM (inactive)	16.5 µM (inactive)	15.9 µM (inactive)	16.7 µM (inactive)	15.5 µM (inactive)	6 µM (inactive)	13.4 µM (inactive)	15.7 µM (inactive)	10.1 µM (inactive)	12.2 µM (inactive)	17 µM (inactive)	20.5 µM (inactive)	16.9 µM (inactive)	17.6 µM (inactive)	15.4 µM (inactive)	17 µM (inactive)
CC1(C)OCC(C2OC(C)(C)OC2[C@H]2O[C@@]3(O)[C@H]4[C@H](C=CC[C@@H]42)[C@@H](OCc2ccccc2)[C@H](OCc2ccccc2)[C@H]3OCc2ccccc2)O1 (stereo not given in full)	35 µM (inactive)	8.63 µM (inactive)	33.7 µM (inactive)	21.9 µM	22.6 µM (inactive)	15.2 µM (inactive)	94.8 µM (inactive)	31.7 µM (inactive)	17.9 µM (inactive)	12.5 µM (inactive)	> 100 µM (inactive)	28.4 µM (inactive)	37.1 µM (inactive)	16.5 µM (inactive)	43.2 µM (inactive)	27.9 µM (inactive)	32.4 µM (inactive)	53.6 µM (inactive)	18.8 µM (inactive)	31 µM (inactive)
